What was measured:
mouse DPP1 = target: T1, mouse DPP1 (Mus musculus, UniProt P97821); test: Mouse DPP1 Enzyme IC50 Assay; type: biochemical; settings: active mouse DPP1 enzyme, H-Gly-Arg-AMC substrate
T1 construct: Test articles were applied to active mouse DPP1 enzyme; purchased R&D Systems
Protocol: Test articles were applied to active mouse DPP1 enzyme (R&D Systems; Minneapolis, MN) in Assay Buffer (50 mM MES pH 5.5, 50 mM NaCl, 5 mM DTT) in a total reaction volume of 125 μL. 25 μL of compound in Assay Buffer plus 5% DMSO was first added to 50 μL of active mouse DPP1 enzyme at a concentration of […] and allowed to pre-incubate for 10 minutes at 37° C. after which 50 μL of 1000 μM H-Gly-Arg-AMC substrate (Bachem; St. Torrance, CA) was added, giving final substrate concentration of 400 μM and a final DMSO concentration of 1%. Substrate cleavage was measured for 90 minutes at 37° C., with fluorescence at Excitation/Emission 350/450 nm measured every 5 minutes. DPP1 concentration was interpolated based on its activity relative to a standard curve of recombinant active mouse DPP1 enzyme. IC50 values for each compound were calculated via the XLFit (IDBS Version 5.3.1.3) Add-On to Microsoft Excel using the four parameter fit equation y= (A+ ((B−A)/(1+ ((C/x)^D)))), which appears as equation number 205 (4 Parameter Logistic Model or Sigmoidal Dose-Response Model) in XLFit. Default constraints were used for each Parameter. IC50 was defined as the compound concentration at which 50% of enzyme activity was inhibited when compared to the no-compound control.

proteinase 3 (PR3) = test: PR3 activity in lysates of mouse bone marrow progenitor cells differentiated into neutrophils under DPP1 inhibitor; type: cell-based
Protocol: Male or female C57BL/6 mice at the age of 8-14 weeks were used.
The two femurs and two tibias were removed out of a single mouse and gauze was used to remove the muscles and residue tissues. A sterile environment for surgical instruments and surgical sites is maintained. The bones were put into one 15-mL tube with cold sterile RPMI medium and placed on ice until further processing is performed.
A fresh 50-mL tube is placed on ice and a fresh 40/70 μm cell strainer (CLS431750, Sigma) is inserted into the top of the Falcon tube. Both ends of two femurs and two tibias are cut with bone cutters and flush bone marrow of all bones from one single mouse are placed into the cell strainer. 5-mL of ice-cold RPMI (RPMI medium containing 10 mM HEPES, pH 7.4) was used for each femur or tibia using a blunt needle (25 G needle), totaling about 20 mL per tube.
The cell suspension is centrifuged at 600×g for 5 min at 4° C. and the supernatant is carefully discarded.
The cell pellet is resuspended in 400 μL of ice-cold MACS buffer (PH7.2 PBS plus 0.5% BSA and 2 mM EDTA) for one adult mouse (optimized for 4 bones/mouse).
100 μL Direct Lineage Cell Depletion Cocktail (which is enough for 100 million cells depletion) is added. The components are mixed well and incubated for 10 min. at 2° C.-8° C.
Magnetic separation LS Column (MACS, Miltenyi, 130 042 401) is prepared by placing it in the magnetic field of MACS Separator and rinsing with 3 mL of ice-cold MACS buffer.
Cell suspension is applied onto the column. Flow-through containing unlabeled cells, representing the enriched lineage negative cells, is collected.
Column is washed with 3×3 mL of ice-cold MACS buffer. Unlabeled cells that pass through are collected, representing the enriched lineage negative cells, and combined with the flow-through from prior step.
The cell suspension is centrifuged at 600×g for 5 min at 4° C., and the supernatant is carefully discarded. The pellet is washed once with 10 mL ice cold IMDM medium (IMDM GlutaMax (Gibco, 31980030) plus 10% FCS and 1% PS).
The cell pellet is resuspended with 2 mL ice-cold complete IMDM medium and the cells are counted. The cells are then ready for neutrophil differentiation.
The resulting undifferentiated bone marrow cells are in complete IMDM medium (IMDM with 10% FBS and 1% antibiotics); and the concentration of cells is adjusted to 1×10^5 cells/mL, supplemented with 50 ng/ml of SCF (BioLegend, 579704) and 50 ng/ml of IL 3 (BioLegend, 575504). The cells are subgrouped and the respective DPP1 inhibitors are added accordingly. Cells are then cultivated in a flask at 37° C. for 3 days.
Cells are checked each day for expansion and maintaining a final concentration between 2-10×10^5 cells/ml. On day 3, cells are counted. 3-4 million cells for each group are harvested and lystates prepared for NSPs activity detection. The left cells are resuspended at 2× 10^5 cells/mL in fresh medium supplemented with 50 ng/ml of SCF, 50 ng/ml of IL 3 and 50 ng/ml of G-CSF (BioLegend, 574604). The DPP1 inhibitors are refreshed in the medium. Cells are then cultivated in a flask at 37° C. for another 2 days.
On day 5, cells are counted. 3-4 million cells/condition are harvested and the cells are lysed to prepare samples for NSPs activity detection. The remaining cells are collected by centrifugation at 600×g for 5 min. The left cells are washed once in 1×PBS. After the wash, the pelleted cells are resuspended in complete IMDM medium at 4-6×10^5 cells/mL supplemented with 50 ng/ml of G-CSF only. The DPP1 inhibitors in the medium are refreshed. Cells incubate for additional 2 days, for a total of 7 days from day of harvest. On day 7, cells are counted. 3-4 million cells/condition are harvested and the cell lysed to prepare samples for NSPs activity detection.
3-4 million cells are collected into Eppendorf tubes. Samples are spun down at 600×g, 4° C. for 5 min. The supernatant is removed and resuspended in 1 mL PBS. […]

T1 sequence (P97821 25-134 limits assumed): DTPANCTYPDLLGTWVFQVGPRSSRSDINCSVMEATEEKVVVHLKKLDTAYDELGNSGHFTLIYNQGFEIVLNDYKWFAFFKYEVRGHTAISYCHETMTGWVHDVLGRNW
T1 sequence (P97821 231-393 limits assumed): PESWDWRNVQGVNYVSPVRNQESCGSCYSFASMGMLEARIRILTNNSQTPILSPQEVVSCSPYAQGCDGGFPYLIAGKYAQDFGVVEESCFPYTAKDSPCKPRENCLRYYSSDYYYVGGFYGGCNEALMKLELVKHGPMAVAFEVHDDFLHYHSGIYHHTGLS
T1 sequence (P97821 394-462 limits assumed): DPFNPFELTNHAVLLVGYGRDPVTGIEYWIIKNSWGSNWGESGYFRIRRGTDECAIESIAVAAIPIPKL

Row | IC50 (mouse DPP1) | SMILES | PR3 Activity (% reduction from control) (proteinase 3 (PR3); 0.02 μM, Day 3) | PR3 Activity (% reduction from control) (proteinase 3 (PR3); 0.02 μM, Day 5) | PR3 Activity (% reduction from control) (proteinase 3 (PR3); 0.02 μM, Day 7) | PR3 Activity (% reduction from control) (proteinase 3 (PR3); 0.1 μM, Day 3) | PR3 Activity (% reduction from control) (proteinase 3 (PR3); 0.1 μM, Day 5) | PR3 Activity (% reduction from control) (proteinase 3 (PR3); 0.1 μM, Day 7) | max inhibition of PR3 activity observed (proteinase 3 (PR3); regardless of day) | reduction in PR3 activity (proteinase 3 (PR3)) | max inhibition of PR3 activity observed (proteinase 3 (PR3); at 1 μM on D5 and D7) | PR3 inhibition at low dose, fluctuations depending on the day (range) (proteinase 3 (PR3); low dose, range over days) | concentration by which PR3 inhibition plateau is reached (proteinase 3 (PR3))
1 | 700 ± 200 pM | COC1CNC[C@@H](C(=O)N[C@H](C#N)Cc2ccc(-c3ccc4oc(=O)n(C)c4c3)cc2)OC1 (mixture of isomers) [INSM-202, (6-rac)-(2S)—N-[(1S)-1-cyano-2-[4-(3-methyl-2-oxo-2,3-dihydro-1,3-benzoxazol-5-yl)phenyl]ethyl]-6-methoxy-1,4-oxazepane-2-carboxamide] | 94% | 95% | 93% | 94% | 96% | 98% | ~ 95% |  |  |  | 
2 | 2300 ± 400 pM | Cn1c(=O)oc2ccc(-c3ccc(C[C@@H](C#N)NC(=O)[C@@H]4CNC[C@H](O)CO4)cc3)cc21 (single isomer, unassigned) [INSM-201, (2S,6S*)—N-[(1S)-1-cyano-2-[4-(3-methyl-2-oxo-2,3-dihydro-1,3-benzoxazol-5-yl)phenyl]ethyl]-6-hydroxy-1,4-oxazepane-2-carboxamide] | 45% | 36% | 72% | 79% | 96% | 96% |  | concentration-dependent reduction in PR3 activity | ~ 95% | 36%-72% | 
3 | 300 ± 100 pM | COC1CNC[C@@H](C(=O)N[C@H](C#N)Cc2ccc(-c3ccc4oc(=O)n(C)c4c3)cc2)OC1 (single isomer, unassigned) [INSM-203, (2S,6R*)—N-[(1S)-1-cyano-2-[4-(3-methyl-2-oxo-2,3-dihydro-1,3-benzoxazol-5-yl)phenyl]ethyl]-6-methoxy-1,4-oxazepane-2-carboxamide] | 93% | 93% | 85% | 94% | 94% | 84% | ~ 90% |  |  |  | ≤ 0.02 µM

Source: patent publication US20260242365A1, “USES OF CERTAIN 1,4-OXAZEPANE-2-CARBOXAMIDES AS DPP1 INHIBITORS” (Insmed Incorporated, priority 2023, published 2026)
